Measured values published in patent US10745382B2 (BRISTOL-MYERS SQUIBB COMPANY, priority 2015, dated 2020).
Like-named read-outs stand apart in the source and are kept apart here.

Biological target: T1, PD-1/PD-L1 (Homo sapiens, UniProt Q9NZQ7)
T1 construct: made in house; host or cells: HEK293T
Assay: PD-1/PD-L1 Homogenous Time-Resolved Fluorescence (HTRF) binding assay
Conditions: PD-L1-His 10 nM, PD-1-Ig 20 nM, read-out: Range or IC50
Summary of the method: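 Detection by europium cryptate anti-Ig plus APC anti-His (1 nM and 20 nM final) with HTRF signal. Buffer was dPBS, 0.1% BSA, 0.05% Tween-20.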

T1 sequence (Q9NZQ7 with tags, fused parts or gaps): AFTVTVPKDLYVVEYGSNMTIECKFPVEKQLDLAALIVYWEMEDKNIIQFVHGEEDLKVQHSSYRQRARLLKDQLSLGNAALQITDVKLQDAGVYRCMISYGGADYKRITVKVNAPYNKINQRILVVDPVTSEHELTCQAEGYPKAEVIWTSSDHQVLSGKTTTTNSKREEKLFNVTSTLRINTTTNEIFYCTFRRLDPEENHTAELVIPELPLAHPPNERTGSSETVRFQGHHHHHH

IC50 (value given as range class) [nM] | IC50 (numeric IC50) [nM] | SMILES
0.21 to 10 |  | COC(=O)C1CCN(CCCOc2cccc(-c3cccc(COc4cc(OCc5cncc(C#N)c5)c(CNC[C@H](O)CO)cc4Cl)c3C)c2Cl)CC1 [Example 2027, (S)-methyl 1-(3-((2-chloro-3′-((2-chloro-5-((5-cyanopyridin-3-yl)methoxy)-4-(((2,3-dihydroxypropyl)amino)methyl)phenoxy)methyl)-2′-methyl-[1,1′-biphenyl]-3-yl)oxy)propyl)piperidine-4-carboxylate]
0.21 to 10 |  | Cc1c(COc2cc(OCc3cncc(C#N)c3)c(CNC(CO)CO)cc2Cl)cccc1-c1cccc(Nc2cc(N3CCOCC3)ncn2)c1C [Example 2350, 5-((4-chloro-2-(((1,3-dihydroxypropan-2-yl)amino)methyl)-5-((2,2′-dimethyl-3′-((6-morpholinopyrimidin-4-yl)amino)-[1,1′-biphenyl]-3-yl)methoxy)phenoxy)methyl)nicotinonitrile]
0.21 to 10 |  | Cc1c(COc2cc(OCc3cncc(C#N)c3)c(CN3CCCC[C@H]3C(=O)O)cc2Cl)cccc1-c1cccc(OCCCNCC(O)c2ccccn2)c1C (stereo partly drawn) [Example 2222, (2S)-1-(5-chloro-2-((5-cyanopyridin-3-yl)methoxy)-4-((3′-(3-(2-hydroxy-2-(pyridin-2-yl)ethylamino)propoxy)-2,2′-dimethylbiphenyl-3-yl)methoxy)benzyl)piperidine-2-carboxylic Acid]
100 to 2000 |  | CNC(=O)c1cccc(-c2cccc(COc3cc(OCc4cc(F)cc(F)c4)c(CN4C[C@H](O)C[C@H]4C(=O)O)cc3Cl)c2C)c1C [Example 4025, (2S,4R)-1-(5-chloro-2-((3,5-difluorobenzyl)oxy)-4-((2,2′-dimethyl-3′-(methylcarbamoyl)-[1,1′-biphenyl]-3-yl)methoxy)benzyl)-4-hydroxypyrrolidine-2-carboxylic Acid]
 | 2 | Cc1c(COc2cc(OCCCN3CC[C@@H](O)C3)c(CN3CCCC[C@H]3C(=O)O)cc2Cl)cccc1-c1cccc(OCCCN2CC[C@@H](O)C2)c1C [Example 1529, (S)-1-(5-chloro-2-(3-((R)-3-hydroxypyrrolidin-1-yl)propoxy)-4-((3′-(3-((R)-3-hydroxypyrrolidin-1-yl)propoxy)-2,2′-dimethyl-[1,1′-biphenyl]-3-yl)methoxy)benzyl)piperidine-2-carboxylic Acid]
0.21 to 10 |  | Cc1c(COc2cc(OCc3cncc(C#N)c3)c(CN3CCN(C)C(=O)C3)cc2Cl)cccc1-c1cccc(OCCCN2CC[C@@H](O)C2)c1C [Example 2330, (R)-5-((4-chloro-5-((3′-(3-(3-hydroxypyrrolidin-1-yl)propoxy)-2,2′-dimethyl-[1,1′-biphenyl]-3-yl)methoxy)-2-((4-methyl-3-oxopiperazin-1-yl)methyl)phenoxy)methyl)nicotinonitrile]
 | 1.7 | Cc1c(OCCCN2CC[C@@H](O)C2)cccc1-c1cccc(COc2cc(OCc3cncc(C#N)c3)c(CNC(CO)CO)cc2Cl)c1Cl [Example 2300, (R)-5-((4-chloro-5-((2-chloro-3′-(3-(3-hydroxypyrrolidin-1-yl)propoxy)-2′-methyl-[1,1′-biphenyl]-3-yl)methoxy)-2-(((1,3-dihydroxypropan-2-yl)amino)methyl)phenoxy)methyl)nicotinonitrile]
0.21 to 10 |  | Cc1c(COc2cc(OCc3cncc(C#N)c3)c(CNC(C)(CO)CO)cc2Cl)cccc1-c1cccc(OCCCN2CC[C@@H](O)C2)c1Cl [Example 2104, (R)-5-((4-chloro-5-((2′-chloro-3′-(3-(3-hydroxypyrrolidin-1-yl)propoxy)-2-methyl-[1,1′-biphenyl]-3-yl)methoxy)-2-(((1,3-dihydroxy-2-methylpropan-2-yl)amino)methyl)phenoxy)methyl)nicotinonitrile]
0.21 to 10 |  | Cc1c(COc2cc(OCc3cncc(S(C)(=O)=O)c3)c(CN[C@H](CO)C(=O)O)cc2Cl)cccc1-c1cccc(OCCCN2CC[C@@H](O)C2)c1 [Example 1023, (R)-2-((5-chloro-4-((3′-(3-((R)-3-hydroxypyrrolidin-1-yl)propoxy)-2-methyl-[1,1′-biphenyl]-3-yl)methoxy)-2-((5-(methylsulfonyl)pyridin-3-yl)methoxy)benzyl)amino)-3-hydroxypropanoic Acid]
0.21 to 10 |  | Cc1c(COc2cc(OCc3cncc(C#N)c3)c(CN3CCCC[C@H]3C(=O)O)cc2Cl)cccc1-c1cccc(OCCCN2CCN(CC(=O)NC(C)C)CC2)c1C [Example 2217, (2S)-1-(5-chloro-2-((5-cyanopyridin-3-yl)methoxy)-4-((3′-(3-(4-(2-(isopropylamino)-2-oxoethyl)piperazin-1-yl)propoxy)-2,2′-dimethylbiphenyl-3-yl)methoxy)benzyl)piperidine-2-carboxylic Acid]
 | 11 | CCNC(=O)c1cccc(-c2cccc(COc3cc(OCc4cncc(C#N)c4)c(CNC(C)(CO)CO)cc3Cl)c2C)c1C [Example 4010, 3′-((2-chloro-5-((5-cyanopyridin-3-yl)methoxy)-4-(((1,3-dihydroxy-2-methylpropan-2-yl)amino)methyl)phenoxy)methyl)-N-ethyl-2,2′-dimethyl-[1,1′-biphenyl]-3-carboxamide]
0.21 to 10 |  | Cc1c(COc2cc(OCc3cncc(C(N)=O)c3)c(CN3CCCC[C@H]3C(=O)O)cc2Cl)cccc1-c1cccc(OCCCN2CCC(CO)(C(=O)O)CC2)c1Cl [Example 1114, (S)-1-(2-((5-carbamoylpyridin-3-yl)methoxy)-4-((3′-(3-(4-carboxy-4-(hydroxymethyl)piperidin-1-yl)propoxy)-2′-chloro-2-methyl-[1,1′-biphenyl]-3-yl)methoxy)-5-chlorobenzyl)piperidine-2-carboxylic Acid]
0.21 to 10 |  | Cc1c(COc2cc(OCc3cncc(C#N)c3)c(CNC(CO)CO)cc2Cl)cccc1-c1cccc(OCCCN2CCC(CO)CC2)c1C [Example 2294, 5-((4-chloro-2-(((1,3-dihydroxypropan-2-yl)amino)methyl)-5-((3′-(3-(4-(hydroxymethyl)piperidin-1-yl)propoxy)-2,2′-dimethyl-[1,1′-biphenyl]-3-yl)methoxy)phenoxy)methyl)nicotinonitrile]
 | 4 | Cc1c(COc2cc(OCc3cncc(C#N)c3)c(CN3CCCC[C@H]3C(=O)O)cc2Cl)cccc1-c1cccc(OCC(O)CO)c1Cl (stereo partly drawn) [Example 2083, (2S)-1-(5-chloro-4-((2′-chloro-3′-(2,3-dihydroxypropoxy)-2-methyl-[1,1′-biphenyl]-3-yl)methoxy)-2-((5-cyanopyridin-3-yl)methoxy)benzyl)piperidine-2-carboxylic Acid]
0.21 to 10 |  | Cc1c(COc2cc(OCc3cncc(C#N)c3)c(CN3CCCC[C@H]3C(=O)O)cc2Cl)cccc1-c1cccc(OCCCN(C)C[C@H](O)CO)c1C [Example 2332, (S)-1-(5-chloro-2-((5-cyanopyridin-3-yl)methoxy)-4-((3′-(3-(((S)-2,3-dihydroxypropyl)(methyl)amino)propoxy)-2,2′-dimethyl-[1,1′-biphenyl]-3-yl)methoxy)benzyl)piperidine-2-carboxylic Acid]
100 to 2000 |  | CCNC(=O)c1cccc(-c2cccc(COc3cc(OCc4cc(F)cc(F)c4)c(CNC(CO)CO)cc3Cl)c2C)c1C [Example 4021, 3′-((2-chloro-5-((3,5-difluorobenzyl)oxy)-4-(((1,3-dihydroxypropan-2-yl)amino)methyl)phenoxy)methyl)-N-ethyl-2,2′-dimethyl-[1,1′-biphenyl]-3-carboxamide]
0.21 to 10 |  | Cc1cc(OCc2cccc(-c3cccc(OCCCN4CC[C@@H](O)C4)c3C)c2C)cc(OCc2cncc(C#N)c2)c1CN1CCCC[C@H]1C(=O)O [Example 4086, (S)-1-(2-((5-cyanopyridin-3-yl)methoxy)-4-((3′-(3-((R)-3-hydroxypyrrolidin-1-yl)propoxy)-2,2′-dimethyl-[1,1′-biphenyl]-3-yl)methoxy)-6-methylbenzyl)piperidine-2-carboxylic Acid]
0.21 to 10 |  | Cc1c(COc2cc(OCc3cncc(C#N)c3)c(CN3CCCC[C@H]3C(=O)O)cc2Cl)cccc1-c1cccc(OCCCN(CCO)Cc2ccccc2)c1C [Example 2236, (2S)-1-(4-((3′-(3-(benzyl(2-hydroxyethyl)amino)propoxy)-2,2′-dimethylbiphenyl-3-yl)methoxy)-5-chloro-2-((5-cyanopyridin-3-yl)methoxy)benzyl)piperidine-2-carboxylic Acid]
0.21 to 10 |  | Cc1c(COc2cc(OCc3cncc(C#N)c3)c(CN[C@@H](CO)C(=O)O)cc2Cl)cccc1-c1cccc(OCCCN2CCC(O)C2)c1C#N (stereo in doubt) [Example 3009, (S)-2-((5-chloro-4-((2′-cyano-3′-(3-((R)-3-hydroxypyrrolidin-1-yl)propoxy)-2-methyl-[1,1′-biphenyl]-3-yl)methoxy)-2-((5-cyanopyridin-3-yl)methoxy)benzyl)amino)-3-hydroxypropanoic Acid]
